Here are results for 1 compound from patent publication US11691974B2, “3,9-diazaspiro[5,5]undecane compound as FLT3 and AXL inhibitors” (MEDSHINE DISCOVERY INC., priority 2018, dated 2023).

A short description of series [1]: In vivo pharmacokinetic study in rats. The note with it: male, SD, rat, plasma. As for the experimental part: SD male rats aged 7 to 10 weeks were selected. The doses for intravenous and oral administration were 1 mg/kg and 2.5 mg/kg, respectively. The rats were fasted for at least 12 hours before the administration, and resumed feeding 4 hours after the administration. The rats had free access to water throughout the assay period.
On the day of the assay, the animals in the intravenous group were administrated the corresponding compound through a single injection in the tail vein at an administration volume of 5 mL/kg; the oral group were administrated the corresponding compound through a single intragastric gavage at an administration volume of 10 mL/kg. The animals were weighed before administration, and the administration volume was calculated based on the body weight. The time for collecting samples was: 0.083 (the injection group), 0.25, 0.5, 1, 2, 4, 6, 8, 24 h. About 200 μL of whole blood was collected from the jugular vein at each time point to prepare plasma for concentration determination by high-performance liquid chromatography-tandem mass spectrometry (LC-MS/MS). All animals were euthanized by CO2 anesthesia after collecting the PK samples at the last time point. The plasma concentrations were processed by non-compartmental model of WinNonlin™ Version 6.3 (Pharsight, Mountain View, Calif.) pharmacokinetic software, and the pharmacokinetic parameters were calculated by the linear logarithm trapezoidal method.

For another series, the target named is T1, FLT3(ITD, F691L) (Homo sapiens, UniProt P36888, F691L, form not given).
T1 sequence (P36888 1-993 F691L): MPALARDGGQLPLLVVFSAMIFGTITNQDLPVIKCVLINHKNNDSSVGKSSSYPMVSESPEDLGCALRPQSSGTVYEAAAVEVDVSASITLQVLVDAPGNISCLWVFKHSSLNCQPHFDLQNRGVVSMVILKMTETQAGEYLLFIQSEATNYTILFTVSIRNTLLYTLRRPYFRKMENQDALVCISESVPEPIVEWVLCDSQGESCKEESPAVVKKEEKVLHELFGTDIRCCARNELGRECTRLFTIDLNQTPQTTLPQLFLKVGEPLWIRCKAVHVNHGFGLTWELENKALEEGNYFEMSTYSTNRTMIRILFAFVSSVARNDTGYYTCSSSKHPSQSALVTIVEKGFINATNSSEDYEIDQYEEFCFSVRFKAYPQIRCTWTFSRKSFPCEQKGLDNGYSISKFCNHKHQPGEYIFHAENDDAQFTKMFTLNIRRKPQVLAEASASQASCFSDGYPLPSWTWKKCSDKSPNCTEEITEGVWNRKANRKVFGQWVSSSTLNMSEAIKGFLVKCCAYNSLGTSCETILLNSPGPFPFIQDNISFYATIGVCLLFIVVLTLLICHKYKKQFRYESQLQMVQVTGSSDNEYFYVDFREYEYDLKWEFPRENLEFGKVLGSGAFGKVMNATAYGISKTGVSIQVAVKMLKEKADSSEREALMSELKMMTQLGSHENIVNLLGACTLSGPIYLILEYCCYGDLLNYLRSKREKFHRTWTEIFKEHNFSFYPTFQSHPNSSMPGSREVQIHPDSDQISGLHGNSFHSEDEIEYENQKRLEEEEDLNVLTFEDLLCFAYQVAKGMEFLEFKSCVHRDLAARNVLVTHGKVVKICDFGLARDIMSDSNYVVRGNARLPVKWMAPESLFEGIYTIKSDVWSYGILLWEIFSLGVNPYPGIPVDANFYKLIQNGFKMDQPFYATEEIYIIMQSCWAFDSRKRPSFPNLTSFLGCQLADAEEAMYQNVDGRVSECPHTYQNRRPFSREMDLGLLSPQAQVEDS
Briefly: KINOMEscan Kd determination, FLT3 mutant. The series is classed as binding. As to conditions: ratio of Kd versus compound B. Here is the method:
The assay was carried out using KINOMEscan™ technology. The assay compounds were stored in 100% DMSO. The assay was carried out by means of 3-fold dilution and 11-point fitting. All compounds used for Kd determination were dispersed by ultrasound, then directly diluted and tested. All reactions were carried out in a 384-well polypropylene plate. Each portion has a final volume of 0.02 ml. The plate was incubated with shaking at room temperature for 1 hour, and then processed. The kinase concentration in the eluent was finally determined by qPCR method. Kd was obtained by fitting.

Series [2] deals with human biphenotypic B bone marrow mononuclear leukemia cell MV4-11 subcutaneous xenograft tumor. Nature of the series: Inhibition of MV4-11 subcutaneous xenograft tumor in vivo. Further details: species or system nude mice. As for the experimental part:
In this assay, the anti-tumor effect of the compounds was evaluated using a nude mice model of subcutaneous xenograft tumor of human biphenotypic B bone marrow mononuclear leukemia cell MV4-11.
Human biphenotypic B bone marrow mononuclear leukemia cell MV4-11 was cultured in vitro in suspension with a RPMI1640 medium supplemented with 10% fetal bovine serum, 100 U/mL penicillin and 100 μg/mL streptomycin in a 5% CO2 cell incubator at 37° C. Routine passaging was performed twice a week. Cells in the logarithmic growth phase were collected, counted and then used for inoculation.
10×10^6 MV4-11 cells were inoculated subcutaneously on the back of the right neck of each mouse, wherein the inoculation volume was 0.2 mL, and the cell suspension was PBS plus matrigel (volume ratio 1:1). The assay of efficacy in vivo was performed on the 13th day after the cell inoculation, at which time the average tumor volume reached 181 mm^3. The mice were randomly divided into groups with 6 mice in each group, and administration to the mice started.
The diameter of the tumor was measured with vernier calipers twice a week. The formula for calculating the tumor volume is: V=0.5a×b^2, where a and b represent the long and short diameters of the tumor, respectively.
After 14 days of administration, the administration was stopped, and the rebound of the tumor was observed.

Setting [3] is: 5 mg/kg oral once a day for 14 days, then drug withdrawal.

For the compound `CCc1nc(C(N)=O)c(Nc2ccc(N3CCC4(CCN(C)CC4)CC3)c(C)c2)nc1NC1CCOCC1`, in series [1] (iv, injection 1 mg/kg), the exposure AUC(0-t) was determined as 0.457 µM·h, the clearance worked out at 61.2 mL/min/kg and the half-life is 2.99 h. Further, the Vd in series [1] (iv, injection 1 mg/kg, read-out: Vdss) stood at 13.3 L/kg. In series [1] (oral administration 2.5 mg/kg), this compound gave an AUC(0-t) of 0.51 µM·h and a bioavailability of 44.7%. On FLT3(ITD, F691L), the “activity for FLT3 (ITD, F691L) higher than that of compound B” value is 3.6 times. In series [2] (5 mg/kg oral once a day), the “% Inhibition rate on day 14” value was found to be 119% and the “Average tumor volume Day 14” value is listed as 32 cubic millimeter. For the same compound, in series [2] (setting [3]), the “Average tumor volume Day 25” value amounted to 234 cubic millimeter and the “Average tumor volume Day 35” value is on record as 849 cubic millimeter. Besides, in series [2] (baseline at start of dosing, 5 mg/kg oral once a day group), the “Average tumor volume Day 0” value worked out at 181 cubic millimeter.

As a reminder, the AUC(0-t) is exposure summed from dosing to a finite time, without extrapolation to infinity. One may read the clearance as the rate of elimination divided by the concentration. By half-life is commonly meant the time needed for the level to fall by half in the phase considered. A word on the bioavailability: it is dose-corrected exposure relative to a reference, in per cent. Low values mean poor availability, high ones good availability.
